Test results taken from patent US9346813B2, “Substituted pyrrolo[2,3-d]pyrimindines as CDK9 kinase inhibitors” (AbbVie Inc., priority 2014, dated 2016).

Columns and labels:
[1] = test system: H929 cells; experiment: Cell viability assay in H929 cells (Cell TiterGlo); type: cell-based; conditions: Homo sapiens, NCI-H929, 24 hours at 37° C.
Procedure: Cell viability assays were performed using A431 or H929 cells. A431 cells were seeded in 96-well plates at 10,000 cells/well, and after overnight incubation, treated with compounds at 2-times the final concentration to result in a dose response of 3-fold dilutions from 10 μM to 0.0005 μM (50 μL/well, 0.1% final DMSO concentration). H929 cells were seeded in 96-well plates at 10,000 cells/well and treated immediately with compounds as described above. After 24 hours at 37° C., cell viability was measured using Cell TiterGlo reagent (Promega) with a luminescence reader. Alternately, cell viability assays were performed in 384-well format. A431 cells were seeded in 384-well plates at 2500 cells/well and, after overnight incubation, treated with compounds in a dose response of 3-fold dilutions from 10 μM to 0.0005 μM (25 nL/well, 0.1% final DMSO concentration). For the H929 viability assay, 25 nL/well of the compounds was dispensed into 384-well plates in a dose response as described above and cells were immediately seeded in 384-well plates at 2500 cells/well. After 24 hours at 37° C., cell viability was measured using Cell TiterGlo reagent (Promega) with a luminescence reader.

[2] = target: T1, CDK9/Cyclin T1 (Homo sapiens, UniProt P50750); experiment: CDK9 enzyme protocol (LANCE ULight TR-FRET kinase assay); type: biochemical; conditions: 4 nM CDK9/Cyclin T1, 1000 μM ATP, 100 nM U-light MBP peptide, 30 minutes
T1 construct: purchased Carna Biosciences 04-110
T1 sequence (P50750 whole entry): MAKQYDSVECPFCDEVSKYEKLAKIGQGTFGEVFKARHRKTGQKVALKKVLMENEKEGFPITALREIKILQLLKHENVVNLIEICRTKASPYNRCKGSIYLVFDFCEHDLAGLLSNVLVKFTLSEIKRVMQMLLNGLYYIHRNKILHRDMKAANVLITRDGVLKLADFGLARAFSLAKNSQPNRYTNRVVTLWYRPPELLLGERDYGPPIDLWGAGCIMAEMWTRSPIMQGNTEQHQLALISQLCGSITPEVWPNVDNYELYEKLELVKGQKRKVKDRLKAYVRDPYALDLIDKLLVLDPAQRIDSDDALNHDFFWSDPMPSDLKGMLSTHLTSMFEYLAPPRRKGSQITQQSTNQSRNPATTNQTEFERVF
T1 sequence (O60563 whole entry partner): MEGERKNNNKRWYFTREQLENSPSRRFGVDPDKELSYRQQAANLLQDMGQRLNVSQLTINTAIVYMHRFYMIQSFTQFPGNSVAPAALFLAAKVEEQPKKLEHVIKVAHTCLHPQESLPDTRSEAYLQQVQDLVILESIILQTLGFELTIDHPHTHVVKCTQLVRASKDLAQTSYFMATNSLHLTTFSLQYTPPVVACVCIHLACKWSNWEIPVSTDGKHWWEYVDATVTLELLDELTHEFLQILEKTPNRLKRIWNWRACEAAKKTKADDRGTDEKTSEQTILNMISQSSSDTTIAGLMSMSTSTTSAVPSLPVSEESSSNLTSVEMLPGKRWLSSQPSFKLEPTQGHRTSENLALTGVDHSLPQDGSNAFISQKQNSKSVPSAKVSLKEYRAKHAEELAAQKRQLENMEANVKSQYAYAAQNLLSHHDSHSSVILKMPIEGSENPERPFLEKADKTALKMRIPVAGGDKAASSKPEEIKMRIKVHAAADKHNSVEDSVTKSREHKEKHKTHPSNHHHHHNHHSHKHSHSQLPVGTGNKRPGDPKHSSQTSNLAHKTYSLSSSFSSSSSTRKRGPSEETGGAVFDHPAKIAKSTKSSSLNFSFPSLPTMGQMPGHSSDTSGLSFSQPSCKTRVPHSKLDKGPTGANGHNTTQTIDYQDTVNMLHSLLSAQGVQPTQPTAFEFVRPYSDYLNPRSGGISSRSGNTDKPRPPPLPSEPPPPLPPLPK
Procedure: CDK9 enzyme activities were measured using LANCE ULight TR-FRET kinase assay reagents (PerkinElmer, Waltham, Mass.). Compounds were directly added in 100% DMSO to white low volume assay plates (Perkin Elmer Proxiplate 6008289) using a Labcyte Echo acoustic dispenser. Assay reagents in serine/threonine kinase assay buffer containing 20 mM HEPES, 10 mM MgCl2, 100 mM Na3VO4, and 0.0075% Triton X-100. were added for final reaction mixture concentrations of 1000 μM ATP, 100 nM U-light MBP peptide (Perkin Elmer TRF0109M) and reaction initiated with 4 nM CDK9/Cyclin T1 (Carna Biosciences 04-110). The kinase reaction was carried out for 30 minutes before addition of stopping buffer to a final of 20 mM EDTA and 0.5 nM of LANCE Ultra Europium anti-phospho-MBP antibody (PerkinElmer TRF0201M) in LANCE detection buffer (PerkinElmer CR97-100). The reaction was equilibrated for 1 hour and the signal read in the Perkin Elmer Envision in TR-FRET mode (excitation at 320 nm and emission at 615/665 nm).

| Compound | EC50 [1] | IC50 [2] |
| --- | --- | --- |
| COc1ccc(F)cc1-c1ncnc2[nH]c(C3=CCN(Cc4cccc(F)c4)CC3)cc12 [Example 35, 6-[1-(3-fluorobenzyl)-1,2,3,6-tetrahydropyridin-4-yl]-4-(5-fluoro-2-methoxyphenyl)-7H-pyrrolo[2,3-d]pyrimidine] | 930 nM | 150 nM |
| COc1ccc(F)cc1-c1ncnc2[nH]c(C3=CCN(Cc4cccc(C#N)c4)CC3)cc12 [Example 23, 3-({4-[4-(5-fluoro-2-methoxyphenyl)-7H-pyrrolo[2,3-d]pyrimidin-6-yl]-3,6-dihydropyridin-1(2H)-yl}methyl)benzonitrile] | 420 nM | 270 nM |
| COc1ccc(F)cc1-c1ncnc2[nH]c(C3=CCC(N[C@@H](C(=O)O)C(C)C)CC3)cc12 (stereo partly drawn) [Example 84, N-{4-[4-(5-fluoro-2-methoxyphenyl)-7H-pyrrolo[2,3-d]pyrimidin-6-yl]cyclohex-3-en-1-yl}-D-valine] | 6400 nM | 440 nM |
| CS(=O)(=O)N1CC=C(c2cc3c(-c4cc(NCc5ccc(C#N)cc5)ccc4F)ncnc3[nH]2)CC1 [Example 30, 4-{[(4-fluoro-3-{6-[1-(methylsulfonyl)-1,2,3,6-tetrahydropyridin-4-yl]-7H-pyrrolo[2,3-d]pyrimidin-4-yl}phenyl)amino]methyl}benzonitrile] | 230 nM | 130 nM |
| COc1ccc(F)cc1-c1ncnc2[nH]c(C3=CCN(C(=O)C4CC(=O)N4)CC3)cc12 (centres unmarked) [Example 13, 4-({4-[4-(5-fluoro-2-methoxyphenyl)-7H-pyrrolo[2,3-d]pyrimidin-6-yl]-3,6-dihydropyridin-1(2H)-yl}carbonyl)azetidin-2-one] | 840 nM | 69 nM |
| COc1ccc(F)cc1-c1ncnc2[nH]c(C3=CCN(C(=O)[C@H]4CC[C@H](C(=O)O)CC4)CC3)cc12 [Example 74, trans-4-({4-[4-(5-fluoro-2-methoxyphenyl)-7H-pyrrolo[2,3-d]pyrimidin-6-yl]-3,6-dihydropyridin-1(2H)-yl}carbonyl)cyclohexanecarboxylic acid] | 5900 nM | 110 nM |
| COc1ccc(F)cc1-c1ncnc2[nH]c(C3=CCOCC3)cc12 [Example 65, 6-(3,6-dihydro-2H-pyran-4-yl)-4-(5-fluoro-2-methoxyphenyl)-7H-pyrrolo[2,3-d]pyrimidine] | 1000 nM | 69 nM |
| COc1ccc(F)cc1-c1ncnc2[nH]c(C3=CCC(N[C@H](C(=O)O)C(C)C)CC3)cc12 (stereo partly drawn) [Example 78, N-{4-[4-(5-fluoro-2-methoxyphenyl)-7H-pyrrolo[2,3-d]pyrimidin-6-yl]cyclohex-3-en-1-yl}-L-valine] | 6800 nM | 750 nM |
| COc1ccc(F)cc1-c1ncnc2[nH]c(C3=CCC(N[C@H](C(=O)O)C(C)(C)C)CC3)cc12 (stereo partly drawn) [Example 83, N-{4-[4-(5-fluoro-2-methoxyphenyl)-7H-pyrrolo[2,3-d]pyrimidin-6-yl]cyclohex-3-en-1-yl}-3-methyl-L-valine] | 520 nM | 320 nM |
| COc1ccc(F)cc1-c1ncnc2[nH]c(C3=CCC(N[C@@H](CC(C)C)C(=O)O)CC3)cc12 (stereo partly drawn) [Example 85, N-{4-[4-(5-fluoro-2-methoxyphenyl)-7H-pyrrolo[2,3-d]pyrimidin-6-yl]cyclohex-3-en-1-yl}-L-leucine] | 1700 nM | 170 nM |
| COc1ccc(Cl)cc1-c1ncnc2[nH]c(C3=CCN(S(C)(=O)=O)CC3)cc12 [Example 45, 4-(5-chloro-2-methoxyphenyl)-6-[1-(methylsulfonyl)-1,2,3,6-tetrahydropyridin-4-yl]-7H-pyrrolo[2,3-d]pyrimidine] | > 10000 nM | 180 nM |
| COc1ccc(F)cc1-c1ncnc2[nH]c(C3=CCN(Cc4ccncc4)CC3)cc12 [Example 27, 4-(5-fluoro-2-methoxyphenyl)-6-[1-(pyridin-4-ylmethyl)-1,2,3,6-tetrahydropyridin-4-yl]-7H-pyrrolo[2,3-d]pyrimidine] | 720 nM | 220 nM |
| CCOc1ccc(F)cc1-c1ncnc2[nH]c(C3=CCN(Cc4ccc(NC(C)=O)cc4)CC3)cc12 [Example 68, N-[4-({4-[4-(2-ethoxy-5-fluorophenyl)-7H-pyrrolo[2,3-d]pyrimidin-6-yl]-3,6-dihydropyridin-1(2H)-yl}methyl)phenyl]acetamide] | 420 nM | 200 nM |
| COc1ccc(F)cc1-c1ncnc2[nH]c(C3=CCN(C(=O)C4CCC(=O)NC4)CC3)cc12 (centres unmarked) [Example 14, 5-({4-[4-(5-fluoro-2-methoxyphenyl)-7H-pyrrolo[2,3-d]pyrimidin-6-yl]-3,6-dihydropyridin-1(2H)-yl}carbonyl)piperidin-2-one] | 1700 nM | 65 nM |
| COc1ccc(F)cc1-c1ncnc2[nH]c(C3=CCN([C@H]4CC[C@H](CC(=O)O)CC4)CC3)cc12 [Example 87, (trans-4-{4-[4-(5-fluoro-2-methoxyphenyl)-7H-pyrrolo[2,3-d]pyrimidin-6-yl]-3,6-dihydropyridin-1(2H)-yl}cyclohexyl)acetic acid] | 4100 nM | 300 nM |
| CS(=O)(=O)N1CC=C(c2cc3c(-c4cc(NCc5cccc(C#N)c5)ccc4F)ncnc3[nH]2)CC1 [Example 31, 3-{[(4-fluoro-3-{6-[1-(methylsulfonyl)-1,2,3,6-tetrahydropyridin-4-yl]-7H-pyrrolo[2,3-d]pyrimidin-4-yl}phenyl)amino]methyl}benzonitrile] | 160 nM | 110 nM |
| CS(=O)(=O)N1CC=C(c2cc3c(-c4cc(NCc5ccncc5)ccc4F)ncnc3[nH]2)CC1 [Example 37, 4-fluoro-3-{6-[1-(methylsulfonyl)-1,2,3,6-tetrahydropyridin-4-yl]-7H-pyrrolo[2,3-d]pyrimidin-4-yl}-N-(pyridin-4-ylmethyl)aniline] | 329 nM | 51 nM |
| COc1ccc(F)cc1-c1ncnc2[nH]c(C3=CCN(Cc4ccccc4)CC3)cc12 [Example 21, 6-(1-benzyl-1,2,3,6-tetrahydropyridin-4-yl)-4-(5-fluoro-2-methoxyphenyl)-7H-pyrrolo[2,3-d]pyrimidine] | 440 nM | 35 nM |
| COc1ccc(F)cc1-c1ncnc2[nH]c(C3=CCN(S(=O)(=O)C4CCS(=O)(=O)C4)CC3)cc12 (centres unmarked) [Example 38, 6-{1-[(1,1-dioxidotetrahydrothiophen-3-yl)sulfonyl]-1,2,3,6-tetrahydropyridin-4-yl}-4-(5-fluoro-2-methoxyphenyl)-7H-pyrrolo[2,3-d]pyrimidine] | 376 nM | 43 nM |
| COC(=O)c1ccc(CN2CC=C(c3cc4c(-c5cc(F)ccc5OC)ncnc4[nH]3)CC2)cc1 [Example 71, methyl 4-({4-[4-(5-fluoro-2-methoxyphenyl)-7H-pyrrolo[2,3-d]pyrimidin-6-yl]-3,6-dihydropyridin-1(2H)-yl}methyl)benzoate] | 780 nM | 110 nM |
| COc1ccc(F)cc1-c1ncnc2[nH]c(C3=CCN(Cc4cccnc4)CC3)cc12 [Example 34, 4-(5-fluoro-2-methoxyphenyl)-6-[1-(pyridin-3-ylmethyl)-1,2,3,6-tetrahydropyridin-4-yl]-7H-pyrrolo[2,3-d]pyrimidine] | 630 nM | 170 nM |
| COc1ccc(F)cc1-c1ncnc2[nH]c(C3=CCN(Cc4ccc(NC(C)=O)cc4)CC3)cc12 [Example 25, N-[4-({4-[4-(5-fluoro-2-methoxyphenyl)-7H-pyrrolo[2,3-d]pyrimidin-6-yl]-3,6-dihydropyridin-1(2H)-yl}methyl)phenyl]acetamide] | 58 nM | 76 nM |
| COc1ccc(F)cc1-c1ncnc2[nH]c(C3=CCN(Cc4cc(F)cc(F)c4)CC3)cc12 [Example 36, 6-[1-(3,5-difluorobenzyl)-1,2,3,6-tetrahydropyridin-4-yl]-4-(5-fluoro-2-methoxyphenyl)-7H-pyrrolo[2,3-d]pyrimidine] | 1000 nM | 170 nM |
| CCN1CCC(C(=O)N2CC=C(c3cc4c(-c5cc(F)ccc5OC)ncnc4[nH]3)CC2)C1 (centres unmarked) [Example 16, (1-ethylpyrrolidin-3-yl){4-[4-(5-fluoro-2-methoxyphenyl)-7H-pyrrolo[2,3-d]pyrimidin-6-yl]-3,6-dihydropyridin-1(2H)-yl}methanone] | 1100 nM | 150 nM |
| COc1ccc(F)cc1-c1ncnc2[nH]c(C3=CCN(C)CC3)cc12 [Example 4, 4-(5-fluoro-2-methoxyphenyl)-6-(1-methyl-1,2,3,6-tetrahydropyridin-4-yl)-7H-pyrrolo[2,3-d]pyrimidine] | 350 nM | 23 nM |
